Species on record: Rattus norvegicus
Test: Open TG-GATES - Regimen: Daily Repeat
Type: toxicity, organism-based, Sprague-Dawley
Set-up: regimen Daily Repeat, gender Male, age 6 weeks
Settings: in vivo, po, 50 mg/kg, route gavage, dose level Low; for APTT / Bas / Eos / Fbg / Hb / Ht / Lym / MCH / MCHC / MCV / Mono / Neu / PT / Plat / RBC / Ret / WBC: tissue Blood; for KIDNEY_L / KIDNEY_R / KIDNEY_TOTAL: tissue Kidney; for LIVER: tissue Liver; for A/G / ALP / ALT / AST / BUN / CRE / Ca / Cl / DBIL / GLC / IP / K / LDH / Na / PL / RALB / TBIL / TC / TG / TP / gamma-GTP: tissue Plasma

## NNC(=O)c1ccncc1 [ISONIAZID]
72 h, time 3 day
  TERMINAL_BW: 220.3 g
  APTT: 14.6 s
  Bas: 0%
  Eos: 1.2%
  Fbg: 242.2 mg/dL
  Hb: 13.6 g/dL
  Ht: 40.6%
  Lym: 73.4%
  MCH: 21.8 pg
  MCHC: 33.4%
  MCV: 65.3 fL
  Mono: 11.8%
  Neu: 13.8%
  PT: 12 s
  Plat: 113 x10_4/uL
  RBC: 622.8 x10_4/ul
  Ret: 7.5%
  WBC: 85.3 x10_2/uL
  KIDNEY_L: 1 g
  KIDNEY_R: 1 g
  KIDNEY_TOTAL: 2 g
  LIVER: 11.3 g
  A/G: 1.8
  ALP: 862.8 IU/L
  ALT: 23.2 IU/L
  AST: 57 IU/L
  BUN: 16.6 mg/dL
  CRE: 0.5 mg/dL
  Ca: 10.7 mg/dL
  Cl: 104.6 meq/L
  DBIL: 0.008 mg/dL
  GLC: 225.2 mg/dL
  IP: 8.3 mg/dL
  K: 4.8 meq/L
  LDH: 108.6 IU/L
  Na: 140.2 meq/L
  PL: 145.4 mg/dL
  RALB: 3.8 g/dL
  TBIL: 0.3 mg/dL
  TC: 79.2 mg/dL
  TG: 98 mg/dL
  TP: 5.9 g/dL
  gamma-GTP: 1 IU/L
[…], time 7 day
  TERMINAL_BW: 247.3 g
  APTT: 15.7 s
  Bas: 0%
  Eos: 1%
  Fbg: 230.4 mg/dL
  Hb: 13.8 g/dL
  Ht: 41.1%
  Lym: 80.8%
  MCH: 20.9 pg
  MCHC: 33.5%
  MCV: 62.3 fL
  Mono: 6.8%
  Neu: 11.2%
  PT: 12.1 s
  Plat: 125.4 x10_4/uL
  RBC: 661.6 x10_4/ul
  Ret: 6.1%
  WBC: 118.4 x10_2/uL
  KIDNEY_L: 1.1 g
  KIDNEY_R: 1.1 g
  KIDNEY_TOTAL: 2.2 g
  LIVER: 12 g
  A/G: 1.5
  ALP: 797.6 IU/L
  ALT: 20.6 IU/L
  AST: 60.6 IU/L
  BUN: 18.4 mg/dL
  CRE: 0.5 mg/dL
  Ca: 10.5 mg/dL
  Cl: 105.6 meq/L
  DBIL: 0.08 mg/dL
  GLC: 227.2 mg/dL
  IP: 8.2 mg/dL
  K: 5 meq/L
  LDH: 113 IU/L
  Na: 139 meq/L
  PL: 147 mg/dL
  RALB: 3.6 g/dL
  TBIL: 0.3 mg/dL
  TC: 73.2 mg/dL
  TG: 100.4 mg/dL
  TP: 6.1 g/dL
  gamma-GTP: 1 IU/L
[…], time 14 day
  TERMINAL_BW: 307.2 g
  APTT: 15.7 s
  Bas: 0%
  Eos: 1%
  Fbg: 227.8 mg/dL
  Hb: 14 g/dL
  Ht: 41.8%
  Lym: 79%
  MCH: 20.1 pg
  MCHC: 33.5%
  MCV: 60.1 fL
  Mono: 7.4%
  Neu: 12.8%
  PT: 12 s
  Plat: 118.6 x10_4/uL
  RBC: 697.4 x10_4/ul
  Ret: 5.1%
  WBC: 137 x10_2/uL
  KIDNEY_L: 1.2 g
  KIDNEY_R: 1.3 g
  KIDNEY_TOTAL: 2.5 g
  LIVER: 14.1 g
  A/G: 1.6
  ALP: 683 IU/L
  ALT: 19 IU/L
  AST: 58.2 IU/L
  BUN: 16 mg/dL
  CRE: 0.6 mg/dL
  Ca: 10.5 mg/dL
  Cl: 105.8 meq/L
  DBIL: 0 mg/dL
  GLC: 203 mg/dL
  IP: 8.1 mg/dL
  K: 5.1 meq/L
  LDH: 101.6 IU/L
  Na: 138.2 meq/L
  PL: 138.6 mg/dL
  RALB: 3.7 g/dL
  TBIL: 0.3 mg/dL
  TC: 68.8 mg/dL
  TG: 119.2 mg/dL
  TP: 6 g/dL
  gamma-GTP: 0.4 IU/L
[…], time 28 day
  TERMINAL_BW: 372.9 g
  APTT: 15.6 s
  Bas: 0%
  Eos: 1%
  Fbg: 227.4 mg/dL
  Hb: 14.7 g/dL
  Ht: 44.2%
  Lym: 86.2%
  MCH: 19.1 pg
  MCHC: 33.4%
  MCV: 57.3 fL
  Mono: 2.8%
  Neu: 10%
  PT: 12 s
  Plat: 102.2 x10_4/uL
  RBC: 771.2 x10_4/ul
  Ret: 3%
  WBC: 149.4 x10_2/uL
  KIDNEY_L: 1.4 g
  KIDNEY_R: 1.3 g
  KIDNEY_TOTAL: 2.7 g
  LIVER: 15.1 g
  A/G: 1.4
  ALP: 560.2 IU/L
  ALT: 14.2 IU/L
  AST: 55.2 IU/L
  BUN: 20.4 mg/dL
  CRE: 0.6 mg/dL
  Ca: 10.1 mg/dL
  Cl: 104.8 meq/L
  DBIL: 0.042 mg/dL
  GLC: 208.6 mg/dL
  IP: 7.3 mg/dL
  K: 4.5 meq/L
  LDH: 87.4 IU/L
  Na: 141.4 meq/L
  PL: 138.6 mg/dL
  RALB: 3.6 g/dL
  TBIL: 0.2 mg/dL
  TC: 66.4 mg/dL
  TG: 131.2 mg/dL
  TP: 6.1 g/dL
  gamma-GTP: 1.4 IU/L

From ChEMBL document CHEMBL3885861, “Open TG-GATES”
